Experiment: Solubility of benzoyl peroxide in the disclosed solvents
Format: physicochemical
Details: room temperature
Method: In embodiments, benzoyl peroxide can be added to the solvents to form a mixture at room temperature, e.g., at a temperature of 25 to about 27° C. Additionally, the benzoyl peroxide/solvent mixture also can be added to other ingredients to form desired products, e.g., emulsions, lotions, creams or gels at low temperatures. […] However the key difference between the disclosed prior art and the present compositions is that the benzoyl peroxide will actively go into solution at levels as high as 10% by weight of the total formulation. These solutions can offer new clear products of increased efficacy.

## O=C(OOC(=O)c1ccccc1)c1ccccc1 [benzoyl peroxide]
  level at which benzoyl peroxide goes into solution: ≤ 10 % by weight of the total formulation

— patent US20060204530A1, “Benzoyl peroxide compositions and methods of use” (JR CHEM, LLC, priority 2005, published 2006)
